Laboratory results as given in patent publication US7618802B2 (priority 2003, dated 2009).

Columns and labels:
wild type SARS-CoV = format: cell-based; details: single dose of 500 μg/ml at 1 hr pi
icSARS-CoV = format: cell-based, SARS-CoV; details: single dose of 500 μg/ml at 1 hr pi

For `CCOC(=O)[C@H]1O[C@@H]1C(=O)N[C@@H](CC(C)C)C(=O)NCCC(C)C` (relative stereo) [E64-d, {2S, 3S}-trans-epoxysuccinyl-L-leucylamido-3-methylbutane ethyl ester], the “viral CPE and viral antigen expression” value (wild type SARS-CoV) was “almost complete elimination”, the “reduction in virus yield” value (wild type SARS-CoV; 24 and 48 hrs postinfection) was 3-4 log and the “viral CPE and viral antigen expression” value (icSARS-CoV) was “almost complete elimination”. For the same molecule, the “reduction in virus yield” value (icSARS-CoV; 24 and 48 hrs postinfection) was 3-4 log.
